Tests used:
[1] = tested on: excitatory neurons of the IC; experiment: Sound-based avoidance detection (SBAD) testing in the chemogenetic model of tinnitus (excitatory DREADD injected into the IC, activated by CNO); format: in vivo, C57BL/6J mice
Experimental: (§1) Using a shuttle box divided into two compartments, mice were trained to cross from side to side with sound cues in the “Go” trials and remain still in the absence of sound in the “No-Go” trials for 15 days. […] The sound cues were randomly played as white noise or narrow-band noise at 5, 10, 16, 20, and 32 kHz with sound intensities randomly at 75, 80, or 85 dB. […] Additionally, a hurdle was added on training 11 to reinforce the training. After the 15th training day, mice were tested for 3 days to obtain a baseline score to be compared after noise exposure, as well as retraining for 3 days.
Following the successful completion of training so that mice reached a high percentage of success in the trials, the mice were exposed to a noise-induced trauma for tinnitus. To ensure that the mice still have their hearing, one ear was protected with an ear plug, while the other ear was exposed to the noise. The mice were placed in a sound booth where they were exposed to 120 dB broadband noise at 4-25 kHz for 2-4 hours. Following the noise exposure, the mice were housed for one month, and then tested to see if they have developed tinnitus. In these testing periods, the mice were tested for three days in the shuttle boxes, where they underwent the Go and No-Go trials, however in the No-Go trials the mice were not shocked, as it is expected that mice with tinnitus would cross compartments in the absence of a sound cue. The mice were continued to be shocked in the Go trials in order to ensure that they have retained their hearing and can hear the sound cues. […] To insure there is a significant difference in the No-Go trial scores, chi-square tests were completed comparing the post-noise exposure tests to the baseline tests. However, if tinnitus is not present in the mice, tests were done after waiting one more month, and another if needed.
A chemogenetic-based model was established by using DREADDs to target excitatory neurons of the IC to establish a more reliable and efficient tinnitus model in mice. […]

[2] = SBAD testing of a control group of SBAD trained animals given CNO, to rule out off-target effects of CNO; format: in vivo, mice; conditions: control group of three SBAD trained animals; CNO IP 5 mg/kg one hour before SBAD testing
Experimental: as §1
A chemogenetic-based model was established by using DREADDs to target excitatory neurons of the IC to establish a more reliable and efficient tinnitus model in mice. Stereotaxic microinjections of excitatory DREADDs [AAV8-CaMKIIa-HM3D-mCherry] were performed in these C57BL/6J mice, similar to previous studies (Saloman et al., 2016; Smith et al. 2016; Horii-Hayashi & Nishi 2021). Coordinates for microinjections were based on the atlas of Paxinos and Watson (2006) (AP: −5.00 mm, ML: +/−1.00 mm, DV: −1.50 mm). Mice were anesthetized with 5% isoflurane and placed in a stereotaxic head frame. During surgery mice were maintained at a 1.5-2% isoflurane level. Hair was removed and a vertical incision was made to expose the skull. The skull was leveled between bregma and lambda. […]

## C[N+]1([O-])CCN(C2=Nc3cc(Cl)ccc3Nc3ccccc32)CC1 [CNO, Clozapine-N-oxide]
[1]; of eight animals, one hour after IP injection of CNO, chi-squared, p<0.03
  number of animals tested positive for tinnitus: seven
[1]; one hour after IP injection of CNO, eight mice with 50 or 150 nL AAV8-CaMKIIa-HM3D-mCherry bilaterally in the IC, chi-squared, p<0.03
  animals tested positive for tinnitus (share of animals): 87%
[1]; post-hoc t-tests (Bonferoni adjusted), p<.001, mice with AAV8-CaMKIIa-HM3D-mCherry in the IC
  SBAD No-Go scores post-CNO injections compared to baseline and saline injections: significantly reduced
[2]
  Go and No-Go scores post-CNO injections (behavioral side effects of CNO): remained stable

From patent publication US20260241036A1, “CHEMOGENETICS-BASED THERAPY FOR NEUROLOGICAL DISORDERS” (GATEWAY BIOTECHNOLOGY, INC., priority 2023, published 2026)
